In US20230414735A1, “NEOANTIGENS AND METHODS OF THEIR USE” (priority 2016, published 2023):
Each block holds one compound with its values, some of them ahead of it. Where no end group is shown, it is not given here.

System: HLA Class I molecules
Experiment: HLA class I binding stability assay (pMHC-I complex dissociation, 125I-labeled β2m, scintillation counts)
Design: species or system human
[1] = allele A02.01, pMHC-I dissociation at 37° C.

Compound: CSCC[C@H](NC(=O)[C@H](Cc1c[nH]c2ccccc12)NC(=O)[C@H](Cc1c[nH]cn1)NC(=O)[C@H](CC(N)=O)NC(=O)[C@H](CCCNC(=N)N)NC(=O)[C@H](CCCNC(=N)N)NC(=O)[C@H](CCC(N)=O)NC(=O)[C@H](CO)NC(=O)[C@@H]1CCCN1C(=O)[C@@H](N)CC(C)C)C(=O)O
Stability (T1/2 (h)) (allele B07.02, 37° C.): 6.5 h
Stability (T1/2 (h)) (allele B08.01, 37° C.): 0.7 h

Compound: CC(C)C[C@H](N)C(=O)N1CCC[C@H]1C(=O)N[C@@H](CCCNC(=N)N)C(=O)N[C@@H](CCCCN)C(=O)N1CCC[C@H]1C(=O)N[C@H](C(=O)N[C@@H](CCCNC(=N)N)C(=O)N[C@@H](C)C(=O)N[C@@H](C)C(=O)O)[C@@H](C)O
Stability (T1/2 (h)) (allele B07.02, 37° C.): 5.5 h

Compound: CC(C)C[C@H](NC(=O)[C@H](C)NC(=O)[C@@H](NC(=O)[C@H](CCCNC(=N)N)NC(=O)[C@H](CO)NC(=O)[C@H](CC(=O)O)NC(=O)[C@H](CO)NC(=O)[C@H](CC(C)C)NC(=O)[C@@H](N)CCCCN)[C@@H](C)O)C(=O)O [KLSDSRTAL]
Stability (T1/2 (h)) (allele A02.01, 37° C.): 2.8 h
Stability (T1/2 (h)) (allele B07.02, 37° C.): 6.8 h

Compound: CC[C@H](C)[C@H](N)C(=O)N[C@@H](CCC(N)=O)C(=O)N[C@@H](CC(C)C)C(=O)N[C@@H](CCC(N)=O)C(=O)N[C@@H](CC(=O)O)C(=O)N[C@@H](CCCCN)C(=O)N[C@@H](Cc1ccccc1)C(=O)N[C@@H](CCC(=O)O)C(=O)N[C@@H](Cc1c[nH]cn1)C(=O)N[C@@H](CC(C)C)C(=O)O
Stability (T1/2 (h)) [1]: 0.2 h

Compound: CSCC[C@H](N)C(=O)N[C@@H](C)C(=O)N[C@@H](CC(C)C)C(=O)N[C@@H](CC(N)=O)C(=O)N[C@@H](CO)C(=O)N[C@@H](CCC(=O)O)C(=O)N[C@@H](C)C(=O)N[C@@H](CC(C)C)C(=O)N[C@@H](CO)C(=O)N[C@H](C(=O)O)C(C)C
Stability (T1/2 (h)) (allele A02.01, 37° C.): 0.7 h

Compound: CC[C@H](C)[C@H](NC(=O)[C@@H](NC(=O)[C@H](CC(C)C)NC(=O)[C@@H](NC(=O)[C@@H]1CCCN1C(=O)[C@H](CCCNC(=N)N)NC(=O)[C@H](Cc1c[nH]c2ccccc12)NC(=O)[C@H](CC(N)=O)NC(=O)[C@H](CCSC)NC(=O)CN)[C@@H](C)CC)[C@@H](C)O)C(=O)O
Stability (T1/2 (h)) (allele A02.01, 37° C.): 0.5 h

Compound: CC[C@H](C)[C@H](N)C(=O)N[C@@H](CCSC)C(=O)N[C@@H](CCC(N)=O)C(=O)N[C@@H](CC(C)C)C(=O)N[C@@H](CCSC)C(=O)N1CCC[C@H]1C(=O)N[C@@H](Cc1ccccc1)C(=O)NCC(=O)N[C@@H](CS)C(=O)N[C@@H](CC(C)C)C(=O)O
Stability (T1/2 (h)) [1]: 0.5 h

Compound: CC(C)C[C@H](NC(=O)[C@@H]1CCCN1C(=O)[C@H](CS)NC(=O)[C@H](CC(C)C)NC(=O)[C@H](Cc1c[nH]cn1)NC(=O)[C@H](CC(N)=O)NC(=O)CNC(=O)[C@H](CC(C)C)NC(=O)[C@@H](N)CO)C(=O)O
Stability (T1/2 (h)) (allele A02.01, 37° C.): 3.5 h
Stability (T1/2 (h)) (allele B08.01, 37° C.): 0.5 h

Compound: CSCC[C@H](NC(=O)[C@H](CC(C)C)NC(=O)[C@H](CO)NC(=O)[C@H](CC(C)C)NC(=O)[C@@H]1CCCN1C(=O)[C@H](CCC(N)=O)NC(=O)[C@H](CCSC)NC(=O)[C@H](CCC(N)=O)NC(=O)[C@@H](N)Cc1ccccc1)C(=O)O
Stability (T1/2 (h)) (allele A02.01, 37° C.): 0.3 h

Compound: KVSRENTSPK
Stability (T1/2 (h)) (allele A03.01, 37° C.): 13.5 h

Compound: KPTRAATVSV
Stability (T1/2 (h)) (allele B07.02, 37° C.): 3 h

Compound: CC(C)C[C@H](NC(=O)[C@H](CO)NC(=O)[C@H](CC(N)=O)NC(=O)[C@H](CS)NC(=O)[C@H](CCC(=O)O)NC(=O)[C@H](Cc1c[nH]cn1)NC(=O)[C@H](CC(C)C)NC(=O)[C@@H](NC(=O)[C@@H](N)CCC(N)=O)C(C)C)C(=O)O
Stability (T1/2 (h)) (allele A02.01, 37° C.): 0.5 h

Compound: CC[C@H](C)[C@H](NC(=O)[C@@H](NC(=O)[C@H](CC(C)C)NC(=O)[C@@H](NC(=O)[C@@H]1CCCN1C(=O)[C@H](CCCNC(=N)N)NC(=O)[C@H](CCC(N)=O)NC(=O)[C@H](CC(N)=O)NC(=O)[C@H](CCSC)NC(=O)CN)[C@@H](C)CC)[C@@H](C)O)C(=O)O
Stability (T1/2 (h)) (allele A02.01, 37° C.): 0.4 h

Compound: CC[C@H](C)[C@H](NC(=O)[C@@H]1CCCN1C(=O)[C@H](CC(C)C)NC(=O)[C@H](Cc1ccccc1)NC(=O)[C@H](CC(C)C)NC(=O)[C@H](CO)NC(=O)[C@H](CC(=O)O)NC(=O)[C@@H](NC(=O)[C@H](CC(C)C)NC(=O)[C@@H](N)CCSC)[C@@H](C)O)C(=O)O
Stability (T1/2 (h)) (allele A02.01, 37° C.): 1 h

Compound: CC[C@H](C)[C@H](NC(=O)[C@H](CC(C)C)NC(=O)[C@@H](N)CCC(N)=O)C(=O)N[C@@H](CCSC)C(=O)N[C@@H](CCC(N)=O)C(=O)N[C@@H](CC(C)C)C(=O)N[C@@H](CCSC)C(=O)N1CCC[C@H]1C(=O)N[C@@H](Cc1ccccc1)C(=O)O
Stability (T1/2 (h)) [1]: 0.3 h

Compound: CC(C)C[C@H](NC(=O)[C@H](Cc1c[nH]cn1)NC(=O)[C@H](CCC(=O)O)NC(=O)[C@H](Cc1ccccc1)NC(=O)[C@H](CCCCN)NC(=O)[C@H](CC(=O)O)NC(=O)[C@H](CCC(N)=O)NC(=O)[C@H](CC(C)C)NC(=O)[C@@H](N)CCC(N)=O)C(=O)O
Stability (T1/2 (h)) [1]: 0.6 h

Compound: CC(C)C[C@H](N)C(=O)N[C@H](C(=O)N[C@H](C(=O)N[C@H](C(=O)NCC(=O)N[C@@H](C)C(=O)N[C@H](C(=O)NCC(=O)N[C@H](C(=O)O)C(C)C)C(C)C)C(C)C)C(C)C)C(C)C
Stability (T1/2 (h)) (allele A02.01, 37° C.): 0.6 h

Compound: CC(C)C[C@H](NC(=O)[C@H](CO)NC(=O)[C@H](CS)NC(=O)[C@H](CCC(=O)O)NC(=O)[C@H](Cc1c[nH]c2ccccc12)NC(=O)[C@H](CC(C)C)NC(=O)[C@H](C)NC(=O)[C@H](CC(C)C)NC(=O)[C@H](CC(C)C)NC(=O)[C@@H](N)Cc1ccccc1)C(=O)O
Stability (T1/2 (h)) (allele A02.01, 37° C.): 10.8 h

Compound: CC[C@H](C)[C@H](NC(=O)[C@H](CO)NC(=O)[C@H](Cc1c[nH]c2ccccc12)NC(=O)[C@H](Cc1c[nH]cn1)NC(=O)[C@H](C)NC(=O)[C@@H]1CCCN1C(=O)[C@H](CCSC)NC(=O)[C@H](CC(C)C)NC(=O)[C@H](CO)NC(=O)[C@@H](N)CC(C)C)C(=O)O
Stability (T1/2 (h)) (allele A02.01, 37° C.): 0.4 h

Compound: CC(C)C[C@H](NC(=O)[C@H](CO)NC(=O)[C@H](CS)NC(=O)[C@H](CCC(=O)O)NC(=O)[C@H](Cc1c[nH]c2ccccc12)NC(=O)[C@H](CC(C)C)NC(=O)[C@H](C)NC(=O)[C@H](CC(C)C)NC(=O)[C@@H](N)CC(C)C)C(=O)O
Stability (T1/2 (h)) (allele A02.01, 37° C.): 4 h

Compound: CC[C@H](C)[C@H](NC(=O)[C@H](CCC(N)=O)NC(=O)[C@@H](N)CO)C(=O)N[C@@H](CCSC)C(=O)N[C@@H](CO)C(=O)N[C@@H](CC(C)C)C(=O)N[C@@H](Cc1c[nH]c2ccccc12)C(=O)NCC(=O)N[C@@H](CC(C)C)C(=O)O
Stability (T1/2 (h)) (allele A02.01, 37° C.): 1 h

Other lines, results leading:

Stability (T1/2 (h)) (allele A02.01, 37° C.): 17 h
Compound: CC[C@H](C)[C@H](NC(=O)[C@H](Cc1ccc(O)cc1)NC(=O)[C@H](CC(C)C)NC(=O)[C@@H](N)CC(C)C)C(=O)N[C@H](C(=O)N[C@@H](C)C(=O)N[C@@H](Cc1ccccc1)C(=O)N[C@@H](Cc1ccccc1)C(=O)N[C@@H](CC(C)C)C(=O)O)[C@@H](C)O

Stability (T1/2 (h)) (allele A02.01, 37° C.): 16.9 h
Stability (T1/2 (h)) (allele B07.02, 37° C.): 1.5 h
Compound: CSCC[C@H](NC(=O)[C@H](CC(C)C)NC(=O)[C@@H](N)CCCCN)C(=O)N[C@@H](CC(C)C)C(=O)N[C@@H](CC(C)C)C(=O)N[C@@H](CCCNC(=N)N)C(=O)N[C@@H](CC(C)C)C(=O)N[C@@H](CC(N)=O)C(=O)N[C@@H](CC(C)C)C(=O)O

Stability (T1/2 (h)) (allele A02.01, 37° C.): 2.5 h
Stability (T1/2 (h)) (allele B08.01, 37° C.): 1.2 h
Compound: CSCC[C@H](NC(=O)[C@@H](NC(=O)[C@H](Cc1ccc(O)cc1)NC(=O)[C@H](C)NC(=O)[C@H](CCSC)NC(=O)[C@@H](NC(=O)[C@@H](N)Cc1ccc(O)cc1)C(C)C)C(C)C)C(=O)N[C@@H](C)C(=O)NCC(=O)O

Stability (T1/2 (h)) [1]: 9.4 h
Compound: CC(C)[C@H](NC(=O)[C@H](CO)NC(=O)[C@H](Cc1ccccc1)NC(=O)[C@H](Cc1ccccc1)NC(=O)[C@H](Cc1ccccc1)NC(=O)[C@H](Cc1ccccc1)NC(=O)[C@H](CS)NC(=O)[C@@H](NC(=O)[C@@H](N)CO)C(C)C)C(=O)O

Stability (T1/2 (h)) [1]: 6.4 h
Compound: KVLQMDFLV

Stability (T1/2 (h)) (allele A02.01, 37° C.): 18.7 h
Compound: CC(C)C[C@H](NC(=O)[C@@H](N)CCCNC(=N)N)C(=O)N[C@@H](CO)C(=O)N[C@@H](CO)C(=O)N[C@@H](CS)C(=O)N[C@H](C(=O)N1CCC[C@H]1C(=O)N[C@H](C(=O)N[C@@H](C)C(=O)O)C(C)C)C(C)C

Stability (T1/2 (h)) [1]: 0.4 h
Compound: CSCC[C@H](NC(=O)[C@H](CC(C)C)NC(=O)[C@H](CCC(N)=O)NC(=O)[C@@H](N)CCSC)C(=O)N1CCC[C@H]1C(=O)N[C@@H](Cc1ccccc1)C(=O)NCC(=O)N[C@@H](CS)C(=O)N[C@@H](CC(C)C)C(=O)O

Stability (T1/2 (h)) (allele A02.01, 37° C.): 0.3 h
Compound: CC[C@H](C)[C@H](NC(=O)[C@@H](NC(=O)[C@H](CC(C)C)NC(=O)[C@@H](NC(=O)[C@@H]1CCCN1C(=O)[C@H](CCCNC(=N)N)NC(=O)[C@H](CCCNC(=N)N)NC(=O)[C@H](CC(N)=O)NC(=O)[C@H](CCSC)NC(=O)[C@@H](N)CO)[C@@H](C)CC)[C@@H](C)O)C(=O)O

Stability (T1/2 (h)) (allele A02.01, 37° C.): 9.5 h
Compound: CC(C)C[C@H](NC(=O)[C@@H](N)Cc1ccccc1)C(=O)N[C@@H](CCC(N)=O)C(=O)N[C@@H](CCC(=O)O)C(=O)N[C@@H](CCC(N)=O)C(=O)N[C@@H](Cc1ccc(O)cc1)C(=O)N[C@@H](Cc1c[nH]cn1)C(=O)N[C@@H](CCC(=O)O)C(=O)N[C@@H](C)C(=O)O

Stability (T1/2 (h)) [1]: 3 h
Compound: CSCC[C@H](NC(=O)[C@H](CCC(=O)O)NC(=O)[C@H](CCCNC(=N)N)NC(=O)[C@H](CC(C)C)NC(=O)[C@H](Cc1ccc(O)cc1)NC(=O)[C@H](CC(N)=O)NC(=O)[C@H](CC(C)C)NC(=O)[C@H](CC(C)C)NC(=O)[C@@H](N)CO)C(=O)O

Stability (T1/2 (h)) (allele A02.01, 37° C.): 0.4 h
Compound: CC[C@H](C)[C@H](NC(=O)[C@@H]1CCCN1C(=O)[C@H](CCCNC(=N)N)NC(=O)[C@H](Cc1c[nH]c2ccccc12)NC(=O)[C@H](CC(N)=O)NC(=O)[C@H](CCSC)NC(=O)CNC(=O)CNC(=O)[C@H](CCSC)NC(=O)[C@@H](N)CS)C(=O)O

Stability (T1/2 (h)) [1]: 5.1 h
Compound: CC[C@H](C)[C@H](NC(=O)[C@H](CC(C)C)NC(=O)[C@@H]1CCCN1C(=O)[C@H](Cc1ccccc1)NC(=O)[C@H](CC(C)C)NC(=O)[C@@H](N)CCC(=O)O)C(=O)N[C@@H](Cc1ccccc1)C(=O)N1CCC[C@H]1C(=O)N[C@@H](C)C(=O)O
